From PMC11725774 (Cancer Research Communications, 2025)
Like-named read-outs stand apart in the source and are kept apart here.

Experiments:
MOLM-14 cells (parental) = assay: Growth inhibition of AML cell line; type: cell-based, human; conditions: Homo sapiens, MOLM-14
Experimental: (§1) MV-4-11 cells expressing NRAS^G12D were prepared by transduction with a lentiviral vector encoding the NRAS^G12D mutation. Assays using a panel of parental Ba/F3 into which an additional copy of either WT or a mutant form of FLT3 was introduced were performed at Kyinno Biotechnology Co., Ltd. All cell lines were short tandem repeat authenticated at ATCC or at DSMZ when originally obtained, and no further authentication was done after receipt of the cells in the laboratory.
(§2) Assays using Ba/F3 cells expressing WT and mutant forms of FLT3 were performed by Kyinno Biotechnology. The cells were cultured in the medium recommended by the source for each cell line. Growth inhibition assays were performed using either Cell Titer 96 Aqueous One Solution Cell Proliferation assay (Promega, # G3581) or CCK8 (Dojindo, # CK-04). […] IC50 values were determined from growth inhibition curves fitted using GraphPad Prism and a nonlinear regression model with sigmoidal dose response. Unless otherwise indicated, data are presented as mean ± SEM.

TUS/R line 4 (MOLM-14) = assay: Growth inhibition of TUS-resistant subline; type: cell-based, human; conditions: Homo sapiens, MOLM-14, read-out: GI50 (nM) TUS/R line 4; mean ± SEM (Supplementary Table 6)
TUS/R line 3 (MOLM-14) = assay: Growth inhibition of TUS-resistant subline; type: cell-based, human; conditions: Homo sapiens, MOLM-14, read-out: GI50 (nM) TUS/R line 3; mean ± SEM (Supplementary Table 6)
[1] = test system: MV-4-11 NRAS G12D Clone 4; assay: Growth inhibition of NRAS G12D clone; type: cell-based, human; conditions: Homo sapiens, MV4-11; MV-4-11 NRAS G12D, high expression; mean ± SEM; read-out: GI50 (nM) Clone 4
Experimental: as §1, §2

[2] = test system: MV-4-11 NRAS G12D Clone 1; assay: Growth inhibition of NRAS G12D clone; type: cell-based, human; conditions: Homo sapiens, MV4-11; MV-4-11 NRAS G12D; mean ± SEM
Experimental: as §1, §2

[3] = test system: MV-4-11 NRAS G12D Clone 15; assay: Growth inhibition of NRAS G12D clone; type: cell-based, human; conditions: Homo sapiens, MV4-11; MV-4-11 NRAS G12D; mean ± SEM
Experimental: as §1, §2

TUS/R MOLM-14 cells = assay: Growth inhibition of TUS-resistant sublines versus parental; type: cell-based, human
MV-4-11 cells = assay: Growth inhibition of AML cell line; type: cell-based, human; conditions: Homo sapiens, MV4-11
Experimental: as §1, §2

[4] = test system: p-JAK1, p-JAK2, p-STAT3, p-STAT5 in MOLM-14 cells cocultured with HS-5 cells; assay: HS-5 stromal coculture Western blot; type: cell-based, human; conditions: concentrations <1 μmol/L; MOLM-14 cocultured with HS-5
Experimental: Cells were treated as described in respective Results sections and then lysed with RIPA buffer. Western blot analyses were performed with antibodies capable of detecting both total and phosphorylated forms of each kinase purchased from commercial sources. Information on the antibodies used is provided in the Supplementary Materials section.
HS-5 cells were obtained from ATCC. The HS-5 stromal cells (5 × 10^5 cells/well) were seeded into six-well plates, and 24 hours later, MOLM-14 cells (1 × 10^6 cells/well) were seeded into the same plate and then cultured for 48 hours. Cultures were then exposed to test drugs for 2 hours, harvested, and lysates were prepared for Western blotting. For stimulation studies, MOLM-14 or KG-1a cells were seeded at 5.0 to 6.0 × 10^6 cells/well into six-well plates in 2 mL medium. Cells were stimulated with 500 μg/mL fibrinogen (Sigma-Aldrich, Catalog # F3879) for 1 hour at 37°C. Alternatively, they were treated with 10 μg/mL IgG (Invitrogen, Catalog # 31154) for 10 minutes on ice followed by IgG cross-linking with 1 μg/mL anti–human IgG antibody for 10 minutes on ice. After these incubations, the media were removed and the cells were washed with cold PBS, lysed, and analyzed by Western blotting.

MOLM-13 cells = assay: Growth inhibition of AML cell line; type: cell-based; conditions: Homo sapiens, mean ± SD
Experimental: as §1, §2

Ba/F3 cells FLT3 WT = assay: Growth inhibition of Ba/F3 cells; type: cell-based, murine; conditions: Mus musculus, BaF3; Ba/F3 FLT3 WT; mean ± SD; read-out: GI50
Experimental: as §1, §2

Ba/F3 cells FLT3 ITD = assay: Growth inhibition of Ba/F3 cells; type: cell-based, murine; conditions: Mus musculus, BaF3; Ba/F3 FLT3 ITD; mean ± SD; read-out: GI50
Experimental: as §1, §2

Ba/F3 cells FLT3 D835Y = assay: Growth inhibition of Ba/F3 cells; type: cell-based, murine; conditions: Mus musculus, BaF3; Ba/F3 FLT3 D835Y; mean ± SD; read-out: GI50
Experimental: as §1, §2

[5] = test system: Ba/F3 cells FLT3 ITD/F691L; assay: Growth inhibition of Ba/F3 cells; type: cell-based, murine; conditions: Mus musculus, BaF3; Ba/F3 FLT3 ITD/F691L; mean ± SD; read-out: GI50
Experimental: as §1, §2

[6] = test system: Ba/F3 cells FLT3 ITD/D835Y; assay: Growth inhibition of Ba/F3 cells; type: cell-based, murine; conditions: Mus musculus, BaF3; Ba/F3 FLT3 ITD/D835Y; mean ± SD; read-out: GI50
Experimental: as §1, §2

FLT3 D835Y = FLT3 D835Y (Homo sapiens, UniProt P36888, D835Y); assay: Biochemical enzyme activity screening assay; conditions: kinase FLT3 D835Y; mean ± SD
[7] = mean ± SEM (Supplementary Table 6), read-out: GI50 (nM) Parental MOLM-14 (converted)
[8] = mean ± SEM (Supplementary Table 7), read-out: GI50 (nM) Parental (MV-4-11)

Structure (SMILES) | GI50 (TUS/R line 4 (MOLM-14)) | GI50 (TUS/R line 3 (MOLM-14)) | GI50 [1] | GI50 [2] | GI50 [3] | GI50 (MOLM-14 cells (parental); [7]) | fold hypersensitive, TUS/R versus parental MOLM-14 (TUS/R MOLM-14 cells) | GI50 (MV-4-11 cells; [8]) | also measured
Nc1ncn([C@@H]2O[C@H](CO)[C@@H](O)[C@H]2O)c(=O)n1 [5-Azacytidine, 5-azacytidine] | 1580 ± 145 nM | 1620 ± 294 nM | – | – | – | 2140 ± 231 nM | – | – | –
Cc1c2c(nn1C)CSCc1cc(n(C)n1)CSc1cc(c3ccccc3c1)OCCCc1c(C(=O)O)n(C)c3c-2c(Cl)ccc13 [AZD5991] | 18.2 ± 1.6 nM | 22.8 ± 2.7 nM | 44.3 ± 8.3 nM | 10.1 ± 3.2 nM | 7.2 ± 0.4 nM | 168 ± 33.7 nM | ~8 fold | 32.5 ± 5.4 nM | –
Cc1ccc2c(Nc3cccc(Cl)c3F)nccc2c1NC(=O)c1csc2c(N)ncnc12 [Belvarafenib, belvarafenib] | – | – | 209 ± 33.9 nM | 187 ± 38.6 nM | 104 ± 11.1 nM | – | – | 750 ± 92.8 nM | –
CCc1nc(C(N)=O)c(Nc2ccc(N3CCC(N4CCN(C)CC4)CC3)c(OC)c2)nc1NC1CCOCC1 [Gilteritinib, gilteritinib] | 128 nM | 118 nM | 51 ± 12.2 nM | 3.3 ± 0.7 nM | 5.6 ± 1.1 nM | 8.6 nM | – | 2.4 ± 0.7 nM | inhibition of p-JAK1, p-JAK2, p-STAT3, or p-STAT5 [4]: Neither TUS nor gilteritinib inhibited; GI50 (MV-4-11 cells; MV-4-11, mean ± SD (Supplementary Table 4), read-out: GI50): 2 ± 0.2 nM; GI50 (MOLM-14 cells (parental); mean ± SD (Supplementary Table 4), read-out: GI50): 6.1 ± 2.8 nM; GI50 (MOLM-13 cells): 8.4 ± 2.9 nM; GI50 (Ba/F3 cells FLT3 WT): 7 ± 1.5 nM; GI50 (Ba/F3 cells FLT3 ITD): 1.2 ± 0.2 nM; GI50 (Ba/F3 cells FLT3 D835Y): 2.3 ± 0.7 nM; GI50 [5]: 33 ± 6.2 nM; GI50 [6]: 4.4 ± 0.6 nM; GI50 (FLT3 D835Y): 0.5 ± 0.1 nM

Further lines, with some results ahead:

GI50 (TUS/R line 4 (MOLM-14)) | GI50 (TUS/R line 3 (MOLM-14)) | GI50 [1] | GI50 [2] | GI50 [3] | Structure (SMILES) | GI50 (MOLM-14 cells (parental); [7]) | fold hypersensitive, TUS/R versus parental MOLM-14 (TUS/R MOLM-14 cells) | GI50 (MV-4-11 cells; [8]) | also measured
26.8 ± 1.8 nM | 28.9 ± 2.7 nM | – | – | – | Cn1c(=O)n(-c2ccc(C(C)(C)C#N)cc2)c2c3cc(-c4cnc5ccccc5c4)ccc3ncc21 [Dactolisib, dactolisib] | 21.3 ± 1.4 nM | not more sensitive | – | –
459 ± 86.2 nM | 176 ± 32.9 nM | – | – | – | COc1cc(Nc2ncc(F)c(Nc3ccc4c(n3)N(COP(=O)(O)O)C(=O)C(C)(C)O4)n2)cc(OC)c1OC [Fostamatinib, fostamatinib] | – | not more sensitive | – | –
0.1 ± 0.01 nM | 0.1 ± 0.01 nM | – | – | – | Cc1cnc(-c2ccc(-c3ccc(NC(=O)Nc4c(F)cc(F)cc4F)cc3F)c3c2C(=O)NC3)[nH]1 [Luxeptinib] | 0.2 ± 0.01 nM | – | – | –
